# ChEMBL document CHEMBL1201862, “PubChem BioAssay data set” (2004)
# Calls of active or inactive are those of the source.
# Experiments:
# [1] = test system: HEK293; experiment: cells; format: functional, cell-based; settings: Homo sapiens
# [2] = target: T1, Heat shock factor protein 1 (Mus musculus, UniProt P38532); experiment: HSF1 potentiators in luciferase reporter cells, confirmation, cell-based, NIH3T3, luminescence, dose retest (AID 435004); format: functional;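 also: stress induced by proteasome inhibitor MG132 added 30 min after compound; luciferase reporter driven by HSF1 response element in NIH3T3 cells; actives raise luminescence as potentiators of the MG132 stress response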
# T1 sequence (P38532 whole entry): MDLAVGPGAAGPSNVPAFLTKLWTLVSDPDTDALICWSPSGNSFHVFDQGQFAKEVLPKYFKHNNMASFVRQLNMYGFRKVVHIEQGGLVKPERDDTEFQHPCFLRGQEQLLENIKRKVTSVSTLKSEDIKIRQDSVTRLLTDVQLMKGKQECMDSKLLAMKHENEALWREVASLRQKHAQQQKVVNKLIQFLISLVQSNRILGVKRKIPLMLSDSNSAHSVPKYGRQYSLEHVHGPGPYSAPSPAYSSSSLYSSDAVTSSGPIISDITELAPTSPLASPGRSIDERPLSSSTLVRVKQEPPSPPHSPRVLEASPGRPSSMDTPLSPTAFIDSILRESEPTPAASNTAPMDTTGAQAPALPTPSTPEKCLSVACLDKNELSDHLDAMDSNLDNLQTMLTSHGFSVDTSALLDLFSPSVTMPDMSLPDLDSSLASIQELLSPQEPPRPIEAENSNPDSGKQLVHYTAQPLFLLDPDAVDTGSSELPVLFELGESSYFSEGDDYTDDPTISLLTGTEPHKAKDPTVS
# [3] = target: Nucleotide-binding oligomerization domain-containing protein 2 (Homo sapiens, UniProt Q9HC29); experiment: NOD2 signaling inhibitors, cell-based, luminescence, uHTS, HEK293 (AID 1566); format: functional
# [4] = test system: HEK293; experiment: NOD1 signaling inhibitors, primary screen, cell-based, luminescence, uHTS (AID 1578); format: functional; settings: Homo sapiens
# [5] = test system: HEK293; experiment: cells; format: functional, cell-based; settings: Homo sapiens; remark: listed apart in the source
# [6] = test system: HEK293; experiment: NOD2 signaling inhibitors in MDP-stimulated cells, cell-based, uHTS, luminescence (AID 2001); format: functional; settings: Homo sapiens
# [7] = test system: HEK293; experiment: cells; format: functional, cell-based; settings: Homo sapiens; remark: listed apart in the source
# [8] = target: Caspase-7 (Homo sapiens, UniProt P55210); experiment: procaspase-7 activators, dose response, counter-screen for procaspase-3 activator project, biochemical, absorbance (AID 489013)
# [9] = Counterscreen for AddAB inhibitors: absorbance-based bacterial cell-based high throughput dose response assay for inhibitors of bacterial viability. [Related pubchem assays (depositor defined):AID435030, AID449728, AID449731, AID488942, AID488955, AID488956]; format: functional
# [10] = test system: H9c2; experiment: cells; format: functional, cell-based; settings: Rattus norvegicus, H9c2, Myocardium;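 also: confirmatory concentration-response retest of ultra-high-throughput screening hits for modulation of myocardial damage; cell death induced by hydrogen peroxide oxidative stress; compound pretreatment for 60 min then peroxide exposure for 2 h; potency is for protecting the cells against peroxide damage rather than for killing them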
# [11] = target: T2, Exodeoxyribonuclease V (Escherichia coli (strain K12), UniProt P04993+P07648+P08394); experiment: E. coli RecBCD inhibitors, dose response, counter-screen for AddAB inhibitor project, absorbance, V66 E. coli, mutant T4 phage (AID 492957); format: functional, cell-based, Escherichia coli str. K-12 substr. MG1655
# T2 sequence (P04993 whole entry): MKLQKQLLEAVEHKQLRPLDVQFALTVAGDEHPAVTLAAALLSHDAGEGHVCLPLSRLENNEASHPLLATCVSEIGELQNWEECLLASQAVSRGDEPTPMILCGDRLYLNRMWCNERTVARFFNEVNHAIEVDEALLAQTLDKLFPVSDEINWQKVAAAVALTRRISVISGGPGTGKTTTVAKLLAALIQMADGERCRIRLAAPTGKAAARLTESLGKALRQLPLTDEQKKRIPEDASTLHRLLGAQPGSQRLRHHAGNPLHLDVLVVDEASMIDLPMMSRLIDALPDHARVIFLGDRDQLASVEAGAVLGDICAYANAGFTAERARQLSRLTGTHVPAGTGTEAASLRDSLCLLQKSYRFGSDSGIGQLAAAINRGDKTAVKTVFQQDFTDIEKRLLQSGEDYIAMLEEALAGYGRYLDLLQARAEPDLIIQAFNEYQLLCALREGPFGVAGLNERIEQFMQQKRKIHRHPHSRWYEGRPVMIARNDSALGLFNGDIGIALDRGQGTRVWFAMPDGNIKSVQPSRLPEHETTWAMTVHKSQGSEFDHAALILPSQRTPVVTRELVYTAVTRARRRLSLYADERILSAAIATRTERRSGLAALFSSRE
# T2 sequence (P07648 whole entry): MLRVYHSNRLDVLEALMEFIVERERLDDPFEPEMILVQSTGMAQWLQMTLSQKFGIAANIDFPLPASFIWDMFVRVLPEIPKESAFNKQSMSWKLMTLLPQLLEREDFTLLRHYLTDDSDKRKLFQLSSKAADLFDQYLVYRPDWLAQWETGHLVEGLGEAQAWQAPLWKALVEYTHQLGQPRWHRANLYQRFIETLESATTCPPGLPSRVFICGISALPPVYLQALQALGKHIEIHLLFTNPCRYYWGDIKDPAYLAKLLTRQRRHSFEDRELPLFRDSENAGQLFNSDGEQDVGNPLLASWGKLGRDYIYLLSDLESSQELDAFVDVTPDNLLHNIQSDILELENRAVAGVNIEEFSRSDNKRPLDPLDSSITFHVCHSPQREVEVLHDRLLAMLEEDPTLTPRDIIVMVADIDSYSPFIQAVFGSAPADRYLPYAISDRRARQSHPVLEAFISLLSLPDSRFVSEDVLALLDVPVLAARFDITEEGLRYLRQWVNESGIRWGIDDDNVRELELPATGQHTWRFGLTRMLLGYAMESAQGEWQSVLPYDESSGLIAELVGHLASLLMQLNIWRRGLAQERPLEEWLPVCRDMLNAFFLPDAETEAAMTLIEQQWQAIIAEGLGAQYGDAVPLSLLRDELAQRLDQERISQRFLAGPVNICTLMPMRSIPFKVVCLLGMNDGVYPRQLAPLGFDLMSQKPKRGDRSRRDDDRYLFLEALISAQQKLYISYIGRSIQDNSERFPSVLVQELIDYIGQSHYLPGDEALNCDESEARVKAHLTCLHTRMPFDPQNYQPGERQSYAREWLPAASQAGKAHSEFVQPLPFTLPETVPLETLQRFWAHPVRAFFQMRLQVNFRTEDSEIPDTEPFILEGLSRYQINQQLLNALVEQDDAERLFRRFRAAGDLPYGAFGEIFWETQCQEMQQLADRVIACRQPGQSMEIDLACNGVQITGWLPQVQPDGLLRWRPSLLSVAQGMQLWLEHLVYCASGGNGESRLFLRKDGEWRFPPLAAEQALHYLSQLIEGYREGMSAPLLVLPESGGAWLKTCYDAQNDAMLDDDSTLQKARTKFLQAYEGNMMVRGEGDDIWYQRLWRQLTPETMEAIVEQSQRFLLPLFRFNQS
# T2 sequence (P08394 whole entry): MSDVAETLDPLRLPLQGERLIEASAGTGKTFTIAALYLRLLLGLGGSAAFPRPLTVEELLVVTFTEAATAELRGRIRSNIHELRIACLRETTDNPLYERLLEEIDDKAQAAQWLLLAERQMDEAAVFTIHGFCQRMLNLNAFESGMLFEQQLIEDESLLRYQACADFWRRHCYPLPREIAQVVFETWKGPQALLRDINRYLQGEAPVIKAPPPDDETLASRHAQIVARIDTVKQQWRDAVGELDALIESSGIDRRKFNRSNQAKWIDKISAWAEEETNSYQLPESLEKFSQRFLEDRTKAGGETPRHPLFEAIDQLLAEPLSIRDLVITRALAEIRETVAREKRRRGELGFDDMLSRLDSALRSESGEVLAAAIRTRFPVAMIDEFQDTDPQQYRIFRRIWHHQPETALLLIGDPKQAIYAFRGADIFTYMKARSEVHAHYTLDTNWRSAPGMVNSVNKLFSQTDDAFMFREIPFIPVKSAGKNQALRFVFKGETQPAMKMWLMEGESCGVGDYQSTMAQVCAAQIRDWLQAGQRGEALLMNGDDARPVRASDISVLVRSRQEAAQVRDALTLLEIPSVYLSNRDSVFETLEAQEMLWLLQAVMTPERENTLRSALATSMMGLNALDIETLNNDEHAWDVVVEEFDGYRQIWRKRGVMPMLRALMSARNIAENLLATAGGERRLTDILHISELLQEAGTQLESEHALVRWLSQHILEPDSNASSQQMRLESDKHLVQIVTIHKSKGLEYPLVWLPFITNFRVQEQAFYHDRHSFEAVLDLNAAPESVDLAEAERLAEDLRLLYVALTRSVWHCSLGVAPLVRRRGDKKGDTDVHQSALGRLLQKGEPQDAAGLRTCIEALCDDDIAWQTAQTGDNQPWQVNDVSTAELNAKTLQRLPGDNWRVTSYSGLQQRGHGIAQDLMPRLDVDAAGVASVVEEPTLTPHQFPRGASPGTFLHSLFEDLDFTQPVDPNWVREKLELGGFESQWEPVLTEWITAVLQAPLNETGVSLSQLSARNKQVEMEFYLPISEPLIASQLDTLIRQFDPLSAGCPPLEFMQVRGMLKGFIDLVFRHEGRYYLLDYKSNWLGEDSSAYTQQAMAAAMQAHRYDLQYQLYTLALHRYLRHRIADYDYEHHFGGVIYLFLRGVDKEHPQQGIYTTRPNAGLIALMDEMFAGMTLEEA
# [12] = inhibitors of SNCA 5'UTR-driven reporter translation, confirmation, H4 neuroglioma cells, luminescence (AID 1988); format: functional, cell-based
# [13] = test system: INS1; experiment: beta cell apoptosis inhibitors, cytokine rescue, dose response, luminescence, retest (AID 449756); format: functional, cell-based; settings: Rattus norvegicus;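 also: cell death triggered by IL-1 beta plus TNF-alpha plus IFN-gamma mixture; protective hits raise ATP signal compared with cytokine alone wells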
# [14] = Luminescence Cell-Based Dose Response HTS to Identify Inhibitors of 5'UTR Stem-Loop Driven Prion Protein mRNA Translation in H4 Neuroglioblastoma Cells. [Related pubchem assays: 1827 (Project Summary), 1813 (Primary HTS)]; format: functional
# [15] = inhibitors of firefly luciferase expression or activity, dose response, H4 neuroglioma cells, luminescence (AID 1990); format: functional, cell-based
# [16] = target: T3, Caspase-3 (Homo sapiens, UniProt P42574); experiment: procaspase-3 activators, dose response, biochemical, absorbance (AID 489014)
# T3 sequence (P42574 whole entry): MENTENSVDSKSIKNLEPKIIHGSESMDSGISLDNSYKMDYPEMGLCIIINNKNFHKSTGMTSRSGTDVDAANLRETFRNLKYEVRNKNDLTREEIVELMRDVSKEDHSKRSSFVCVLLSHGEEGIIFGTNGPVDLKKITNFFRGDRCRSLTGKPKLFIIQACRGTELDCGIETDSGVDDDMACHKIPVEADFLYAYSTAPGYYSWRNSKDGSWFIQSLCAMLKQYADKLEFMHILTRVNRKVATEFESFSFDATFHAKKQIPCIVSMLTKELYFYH
# [17] = target: T4, Alkaline phosphatase, tissue-nonspecific isozyme (Homo sapiens, UniProt P05186); experiment: human TNAP enzyme inhibitors, SAR follow-up, biochemical, luminescent, dose response (AID 1056)
# T4 sequence (P05186 whole entry): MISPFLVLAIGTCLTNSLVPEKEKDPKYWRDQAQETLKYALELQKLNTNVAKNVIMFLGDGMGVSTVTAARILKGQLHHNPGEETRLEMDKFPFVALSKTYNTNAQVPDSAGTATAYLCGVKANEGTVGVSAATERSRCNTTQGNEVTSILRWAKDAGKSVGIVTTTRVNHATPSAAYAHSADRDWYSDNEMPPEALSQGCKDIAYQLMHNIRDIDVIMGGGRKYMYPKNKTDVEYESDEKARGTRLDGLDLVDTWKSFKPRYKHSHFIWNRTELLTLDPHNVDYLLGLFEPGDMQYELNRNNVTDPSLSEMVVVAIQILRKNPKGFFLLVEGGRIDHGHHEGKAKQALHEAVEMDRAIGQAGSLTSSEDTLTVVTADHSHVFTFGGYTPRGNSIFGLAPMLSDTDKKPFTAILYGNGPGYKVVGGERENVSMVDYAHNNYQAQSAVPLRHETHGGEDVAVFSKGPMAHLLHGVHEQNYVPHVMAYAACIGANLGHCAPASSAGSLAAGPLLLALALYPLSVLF
# [18] = target: Alkaline phosphatase, placental type (Homo sapiens, UniProt P05187); experiment: PLAP enzyme inhibitors, confirmation, biochemical, luminescence (AID 1512); format: functional
# [19] = target: Glyceraldehyde-3-phosphate dehydrogenase (Homo sapiens, UniProt P04406)
# Chain of Glyceraldehyde-3-phosphate dehydrogenase (P04406 whole entry): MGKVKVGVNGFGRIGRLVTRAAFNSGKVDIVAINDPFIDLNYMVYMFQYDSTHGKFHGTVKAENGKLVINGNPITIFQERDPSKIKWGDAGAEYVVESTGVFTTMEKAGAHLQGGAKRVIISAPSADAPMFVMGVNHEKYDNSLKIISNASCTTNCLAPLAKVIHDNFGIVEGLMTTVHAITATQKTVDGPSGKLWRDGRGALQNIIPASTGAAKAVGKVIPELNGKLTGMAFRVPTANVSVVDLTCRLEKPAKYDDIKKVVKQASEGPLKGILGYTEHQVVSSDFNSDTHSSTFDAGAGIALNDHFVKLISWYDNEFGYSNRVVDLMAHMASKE
# Chain of Alkaline phosphatase, placental type (P05187 whole entry): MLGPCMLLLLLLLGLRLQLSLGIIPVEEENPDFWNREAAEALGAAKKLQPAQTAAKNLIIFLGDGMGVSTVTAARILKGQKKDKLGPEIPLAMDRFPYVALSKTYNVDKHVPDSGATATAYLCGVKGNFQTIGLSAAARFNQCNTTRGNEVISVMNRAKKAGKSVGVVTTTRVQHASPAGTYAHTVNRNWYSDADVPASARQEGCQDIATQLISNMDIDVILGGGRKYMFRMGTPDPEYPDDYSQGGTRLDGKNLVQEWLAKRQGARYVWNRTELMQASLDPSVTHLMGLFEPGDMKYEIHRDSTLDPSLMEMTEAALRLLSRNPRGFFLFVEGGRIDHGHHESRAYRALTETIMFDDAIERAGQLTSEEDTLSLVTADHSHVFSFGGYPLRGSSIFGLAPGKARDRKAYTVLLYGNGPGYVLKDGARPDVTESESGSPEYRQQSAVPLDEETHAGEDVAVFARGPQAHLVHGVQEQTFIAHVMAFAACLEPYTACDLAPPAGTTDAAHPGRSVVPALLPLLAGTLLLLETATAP
# Chain of Nucleotide-binding oligomerization domain-containing protein 2 (Q9HC29 whole entry, the tested form may be a part): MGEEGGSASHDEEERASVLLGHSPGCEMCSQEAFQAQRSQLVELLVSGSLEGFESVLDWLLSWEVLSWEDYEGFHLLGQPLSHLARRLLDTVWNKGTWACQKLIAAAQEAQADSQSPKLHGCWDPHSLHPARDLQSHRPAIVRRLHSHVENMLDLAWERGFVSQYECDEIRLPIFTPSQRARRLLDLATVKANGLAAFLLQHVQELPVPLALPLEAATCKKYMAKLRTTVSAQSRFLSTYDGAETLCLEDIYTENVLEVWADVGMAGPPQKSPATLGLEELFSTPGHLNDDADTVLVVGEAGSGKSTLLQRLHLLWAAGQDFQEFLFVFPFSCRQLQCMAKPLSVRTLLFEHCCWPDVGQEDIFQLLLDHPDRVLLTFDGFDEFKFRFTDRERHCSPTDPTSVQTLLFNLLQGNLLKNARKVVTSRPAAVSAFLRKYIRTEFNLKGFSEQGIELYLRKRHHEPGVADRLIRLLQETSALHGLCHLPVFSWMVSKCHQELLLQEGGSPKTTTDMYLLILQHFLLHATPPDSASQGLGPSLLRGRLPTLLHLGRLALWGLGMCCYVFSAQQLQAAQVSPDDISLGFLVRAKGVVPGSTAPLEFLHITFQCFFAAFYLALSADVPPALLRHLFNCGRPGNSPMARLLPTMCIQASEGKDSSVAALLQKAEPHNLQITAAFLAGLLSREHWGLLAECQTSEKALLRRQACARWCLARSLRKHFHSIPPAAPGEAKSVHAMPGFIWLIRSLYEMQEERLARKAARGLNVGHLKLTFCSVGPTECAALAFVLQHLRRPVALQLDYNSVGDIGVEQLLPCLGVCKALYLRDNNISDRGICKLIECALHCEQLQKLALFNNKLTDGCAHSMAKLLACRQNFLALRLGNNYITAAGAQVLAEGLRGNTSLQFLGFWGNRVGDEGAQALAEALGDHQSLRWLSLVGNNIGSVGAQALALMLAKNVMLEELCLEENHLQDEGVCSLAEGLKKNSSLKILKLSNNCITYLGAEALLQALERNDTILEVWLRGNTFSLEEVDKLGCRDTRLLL
# Chain of Caspase-7 (P55210 24-198 limits assumed): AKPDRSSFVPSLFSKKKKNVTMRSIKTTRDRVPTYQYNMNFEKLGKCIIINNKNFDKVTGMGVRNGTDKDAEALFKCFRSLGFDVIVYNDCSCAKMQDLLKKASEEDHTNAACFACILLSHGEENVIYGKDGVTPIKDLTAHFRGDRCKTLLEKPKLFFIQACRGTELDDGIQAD
# Chain of Caspase-7 (P55210 207-303 limits assumed): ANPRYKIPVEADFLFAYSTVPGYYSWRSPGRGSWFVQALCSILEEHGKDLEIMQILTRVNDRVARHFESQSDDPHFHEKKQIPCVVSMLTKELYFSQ
compound,measurement,setting,value
CCc1ccc(CN(C)C(=O)CCc2nc3ccccc3n(-c3ccc(OC)cc3)c2=O)cc1,IC50,[1],> 20 µM (inactive)
same,EC50,[2],> 260 µM (inactive)
same,EC50,[3],16 µM (active)
same,EC50,[4],12.7 µM (active)
same,IC50,[5],> 20 µM (inactive)
same,IC50,[6],5.96 µM (active)
same,IC50,[7],> 20 µM (inactive)
CCCNC(=O)c1ccc2c(O)c(O)c(-c3ccc(C)cc3)nc2c1,EC50,[8],> 85.3 µM (inactive)
same,IC50,[9],> 119 µM (inactive)
same,IC50,[10],> 79 µM (inactive)
same,IC50,[11],> 119 µM (inactive)
same,EC50,[12],8.86 µM (active)
same,AC50,[13],7.24 µM (active)
same,EC50,[14],> 120 µM (not active)
same,EC50,[15],9.71 µM (active)
same,EC50,[16],> 85.3 µM (inactive)
COc1ccc(Cc2nc(N)nn2-c2ccccc2)cc1,IC50,[17],> 100 µM (inactive)
same,IC50,[18],> 100 µM (inactive)
same,IC50,[19],> 100 µM (not active)
Cc1cc(C)nc(SCC(=O)c2ccc3c(c2)OCO3)n1,IC50,[17],> 100 µM (inactive)
same,IC50,[18],> 100 µM (inactive)
